Values of other authors, collected in patent publication US6465018B1, “Dietary supplement for increasing energy, strength, and immune function” (priority 1997, dated 2002).

Test system: individuals told to avoid physical exercise
Settings: daily dosage of 3 grams

Compound: CN(CC(=O)O)C(=N)N [creatine monohydrate]
- intracellular creatine concentrations: raised intracellular creatine concentrations to effective levels
